Test results published in ChEMBL document CHEMBL3227944, “Beta-adrenoceptor studies. 5. 1H NMR and IR spectroscopic analysis of the conformation of the hydrohalide salts of beta-adrenoceptor-blocking aryloxypropanolamines. Evidence for a seven-membered ring structure with participation of two hydrogen bonds” (J Med Chem, 1979).
The source made the active and inactive calls. No cut-off for these calls is given here.

What was measured:
[1] = Antagonist activity at guinea pig atrium beta-adrenoceptor assessed as inhibition of isoprenaline-induced effect; type: tissue-based, Cavia porcellus, Cardiac atrium
Cavia porcellus [2] = species on record: Cavia porcellus; assay: Competitive antagonist activity at guinea pig trachea beta-adrenoceptor assessed as inhibition of isoprenaline-induced effect up to 10^-4 M; type: tissue-based
[3] = Antagonist activity at guinea pig trachea beta-adrenoceptor assessed as inhibition of isoprenaline-induced effect; type: tissue-based, Cavia porcellus
Cavia porcellus [4] = species on record: Cavia porcellus; assay: Competitive antagonist activity at guinea pig atrium beta-adrenoceptor assessed as inhibition of isoprenaline-induced effect up to 3 X 10^-5 M; type: tissue-based; details: Cardiac atrium

Row | SMILES | pA2 [1] | Activity (Cavia porcellus [2]) | pA2 [3] | Activity (Cavia porcellus [4])
1 | COCC(COc1cccc(C)c1)NC(C)C.Cl (configuration not stated) | 4.66 | inactive | – | –
2 | COC(CNC(C)C)COc1cccc(C)c1.Cl (configuration not stated) | 5.41 | inactive | – | –
3 | Cc1cccc(OCC(CO)NC(C)C)c1.Cl (configuration not stated) | 5.08 | – | 5.21 | –
4 | Cc1cccc(OCC(Cl)CNC(C)C)c1 (configuration not stated) | – | inactive | – | inactive
5 | Cc1cccc(OCC(O)CNC(C)C)c1.Cl (configuration not stated) | 8.76 | – | 7.97 | –
6 | Cc1cccc(OCC(CCl)NC(C)C)c1.Cl (configuration not stated) | 4.86 | inactive | – | –
